MIC and Inhibition zone data for two molecules are collected here from patent publication US6998411B2, “2-Methylheptylisonicotinate and process for production thereof” (Council of Scientific and Industrial Research, priority 2001, dated 2006).

≈ marks a conversion by molar mass, not a printed value. Read-outs that look alike come from different tables or passages of the source.

Common to all, as to type: cell-based
One experiment relates to F. moniliformae. The experiment in a line: antifungal activity, MIC.
Experiment [1] has as its system Rhizoctonia solani. Briefly: antifungal activity, MIC.
Experiment [2] has as its system Klebsiella sp. The experiment in a line: antibacterial activity, MIC.
A further experiment has as its system F. semitectum. Briefly: antifungal activity, MIC. The note with it: Fusarium incarnatum.
For experiment [3], the system named is E. coli. Briefly: antibacterial activity, MIC. The note with it: Escherichia coli.
Another experiment concerns F. semitechtum. Briefly: agar cup assay, zone of inhibition. The settings on record: purified compound, 10 μg of the substance. How it is done:
(§1) 2-Methylheptylisonicotinate of formula 1 was bioassayed following agar cup assay method (Grammer, 1976). […] The antibacterial activity of the bioactive molecule was tested against dominant bacterial strains such as Bacillus subtilis, E. coli, Shigella sp., Klebsiella sp. and Proteus mirabilis. Maximum inhibition was recorded in E. coli (30 mm in diameter) and Proteus mirabilis (28 mm). […] Maximum zone of inhibition was recorded in Fusarium solani and F. semitechtum (26 mm with 10 μg of the substance), and in F. oxysporum inhibition zone was 25 mm. Similar inhibition was also observed in F. moniliformae and Rhizoctonia solani (24 mm and 22 mm) respectively (Tables 2, 3 & 4). The above antibiotic activity against dominant pathogens is the clear indication of the potential application of the compound for both agricultural and medical purposes.
as §1, with “2-Methylheptylisonicotinate” for “2-Methylheptylisonicotinate of formula”, “(Table” for “(Tables”, “4).” for “4). The above antibiotic activity against dominant pathogens is the clear indication of the potential application of the compound for both agricultural and medical purposes.”

The subject of experiment [4] is Rhizoctonia solani. The experiment in a line: agar cup assay, zone of inhibition. The note with it: purified compound, 10 μg of the substance. The method, then:
as §1
as §1, with “2-Methylheptylisonicotinate” for “2-Methylheptylisonicotinate of formula”, “(Table” for “(Tables”, “4).” for “4). The above antibiotic activity against dominant pathogens is the clear indication of the potential application of the compound for both agricultural and medical purposes.”

Another experiment relates to F. oxysporum. Briefly: agar cup assay, zone of inhibition. The settings on record: purified compound, 10 μg of the substance. The method, then:
as §1
as §1, with “2-Methylheptylisonicotinate” for “2-Methylheptylisonicotinate of formula”, “(Table” for “(Tables”, “4).” for “4). The above antibiotic activity against dominant pathogens is the clear indication of the potential application of the compound for both agricultural and medical purposes.”

Experiment [5] deals with E. coli. Briefly: agar cup assay, zone of inhibition. The settings on record: purified compound, 10 μg of the substance. The method, then:
as §1
as §1, with “2-Methylheptylisonicotinate” for “2-Methylheptylisonicotinate of formula”, “(Table” for “(Tables”, “4).” for “4). The above antibiotic activity against dominant pathogens is the clear indication of the potential application of the compound for both agricultural and medical purposes.”

Another experiment deals with Fusarium moniliforme. Briefly: agar cup assay, zone of inhibition. The note with it: purified compound, 10 μg of the substance. How it is done:
as §1
as §1, with “2-Methylheptylisonicotinate” for “2-Methylheptylisonicotinate of formula”, “(Table” for “(Tables”, “4).” for “4). The above antibiotic activity against dominant pathogens is the clear indication of the potential application of the compound for both agricultural and medical purposes.”

Experiment [6] relates to Shigella sp. Briefly: agar cup assay, zone of inhibition. The note with it: purified compound, 10 μg of the substance. The method, then:
as §1
as §1, with “2-Methylheptylisonicotinate” for “2-Methylheptylisonicotinate of formula”, “(Table” for “(Tables”, “4).” for “4). The above antibiotic activity against dominant pathogens is the clear indication of the potential application of the compound for both agricultural and medical purposes.”

Experiment [7] concerns F. solani. The experiment in a line: agar cup assay, zone of inhibition. The note with it: purified compound, 10 μg of the substance. The method, then:
as §1
as §1, with “2-Methylheptylisonicotinate” for “2-Methylheptylisonicotinate of formula”, “(Table” for “(Tables”, “4).” for “4). The above antibiotic activity against dominant pathogens is the clear indication of the potential application of the compound for both agricultural and medical purposes.”

The subject of experiment [8] is Klebsiella sp. The experiment in a line: agar cup assay, zone of inhibition. The note with it: purified compound, 10 μg of the substance. How it is done:
as §1
as §1, with “2-Methylheptylisonicotinate” for “2-Methylheptylisonicotinate of formula”, “(Table” for “(Tables”, “4).” for “4). The above antibiotic activity against dominant pathogens is the clear indication of the potential application of the compound for both agricultural and medical purposes.”

The subject of experiment [9] is Proteus mirabilis. The experiment in a line: agar cup assay, zone of inhibition. The note with it: purified compound, 10 μg of the substance. The method, then: as §1
as §1, with “2-Methylheptylisonicotinate” for “2-Methylheptylisonicotinate of formula”, “(Table” for “(Tables”, “4).” for “4). The above antibiotic activity against dominant pathogens is the clear indication of the potential application of the compound for both agricultural and medical purposes.”

The test system of experiment [10] is Bacillus subtilis. Briefly: agar cup assay, zone of inhibition. The note with it: purified compound, 10 μg of the substance. The method, then: as §1
as §1, with “2-Methylheptylisonicotinate” for “2-Methylheptylisonicotinate of formula”, “(Table” for “(Tables”, “4).” for “4). The above antibiotic activity against dominant pathogens is the clear indication of the potential application of the compound for both agricultural and medical purposes.”

Experiment [11] relates to Shigella sp. Briefly: antibacterial activity, MIC.
A further experiment relates to F. oxysponim. The experiment in a line: antifungal activity, MIC.
The subject of experiment [12] is Bacillus subtilis. Briefly: antibacterial activity, MIC.
Experiment [13] concerns Proteus mirabilis. Briefly: antibacterial activity, MIC.
The test system of experiment [14] is F. solani. Briefly: antifungal activity, MIC. The note with it: Fusarium solani.
The test system of another experiment is Arthrobacter sp. The experiment in a line: antibacterial activity, MIC.
Where [15] appears, read: Fusarium oxysporum, read-out: MIC.

In the case of `CCCCCC(C)COC(=O)c1ccncc1` (stereo not shown) [Compound 1, 2-methylheptylisonicotinate], the MIC amounted to 42 µg/mL (≈ 178 µM) with F. moniliformae (listed as I); 45 µg/mL (≈ 191 µM) in the experiment with F. moniliformae (read-out: MIC); 20 µg/mL (≈ 85 µM) in the experiment with Rhizoctonia solani [1]; 50 µg/mL (≈ 212 µM) with Klebsiella sp. [2]; 20 µg/mL (≈ 85 µM) in the experiment with F. semitectum; 70 µg/mL (≈ 297 µM) with E. coli [3]. Moreover, the MIC in the experiment on Shigella sp. [11] is 60 µg/mL (≈ 255 µM); with F. oxysponim (F. oxysponim (F. oxysporum), listed as I) it was 45 µg/mL (≈ 191 µM); in the experiment with F. oxysponim (setting [15]) it was 43 µg/mL (≈ 183 µM); with Bacillus subtilis [12] it was 50 µg/mL (≈ 212 µM); in the experiment on Proteus mirabilis [13], 40 µg/mL (≈ 170 µM); with F. solani [14] it was 20 µg/mL (≈ 85 µM). In the experiment on Arthrobacter sp., the MIC stood at 40 µg/mL (≈ 170 µM). Besides, the Inhibition zone was 26 mm in the experiment on F. semitechtum; 22 mm in the experiment on Rhizoctonia solani [4]; 25 mm in the experiment on F. oxysporum; 30 mm in the experiment with E. coli [5]; 24 mm with Fusarium moniliforme; 20 mm in the experiment with Shigella sp. [6]. In addition, the Inhibition zone turned out to be 26 mm with F. solani [7], 18 mm with Klebsiella sp. [8], 28 mm in the experiment with Proteus mirabilis [9] and 20 mm with Bacillus subtilis [10].

Turning to `NNC(=O)c1ccncc1` [Isoniazid, isonicotinic acid hydrazide, reference compound], the minimum inhibitory concentration (MIC) in the experiment with F. moniliformae (read-out: MIC) was found to be 200 µg/mL (≈ 1460 µM); against Rhizoctonia solani [1] it was 250 µg/mL (≈ 1820 µM); in the experiment on Klebsiella sp. [2], 250 µg/mL (≈ 1820 µM); in the experiment on F. semitectum, 300 µg/mL (≈ 2190 µM); in the experiment on E. coli [3] it was 250 µg/mL (≈ 1820 µM); against Shigella sp. [11], 300 µg/mL (≈ 2190 µM). The MIC turned out to be 350 µg/mL (≈ 2550 µM) with F. oxysponim (setting [15]); 150 µg/mL (≈ 1090 µM) with Bacillus subtilis [12]; 200 µg/mL (≈ 1460 µM) in the experiment on Proteus mirabilis [13]; 300 µg/mL (≈ 2190 µM) with F. solani [14]; 150 µg/mL (≈ 1090 µM) in the experiment with Arthrobacter sp..
